Key:
T-cell [1] = assay: IL-2 secretion from T-cells co-stimulated with anti-CD3 and anti-CD28 antibody (Biological Example 2); assay type: cell-based, human; settings: Homo sapiens, T-cell, fold change over baseline, primary human total T-cells, read-out: IL-2 secretion Anti-CD3/Anti-CD28 stimulation; for fold induction at 0.3 µM: 0.3 μM Cbl-b inhibitor; for fold induction at 1 µM: 1 μM Cbl-b inhibitor; for fold induction at 4 µM: 4 μM Cbl-b inhibitor
Method in brief: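 Values are fold-change over baseline: readings (IL-2 release, CD25 staining) from inhibitor-treated T-cells divided against untreated cells […]. No detailed procedure stated.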

T-cell [2] = assay: CD25 cell surface staining on T-cells stimulated with anti-CD3 antibody alone (Biological Example 2); assay type: cell-based, human; settings: T-cell, fold change over baseline, primary human total T-cells, read-out: CD25 staining Anti-CD3 stimulation; for fold induction at 1 µM: 1 μM Cbl-b inhibitor; for fold induction at 8 µM: 8 μM Cbl-b inhibitor
Cbl-b = Cbl-b (Homo sapiens, UniProt Q13191); assay: Cbl-b activity assay (Cbl-b inhibition assay), TR-FRET of Cbl-b interaction with UbcH5B-Ub; assay type: biochemical; settings: assay buffer with 100 mM NaCl, 60 nM Src kinase; read-out: Cbl-b activity IC50
Method in brief: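 Compound-treated Cbl-b was incubated 1.5 h with Src kinase (60 nM final; 30 nM for asterisked values, which also used 50 mM instead of 100 mM NaCl), 1 mM ATP and 5 mM MgCl2. Binding to fluorescent Ub-loaded UbcH5B (C85K mutant) was then read by TR-FRET after 1 h more.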

Cbl-b (residues 36-427) = Cbl-b (residues 36-427) (Homo sapiens, UniProt Q13191); assay: Cbl-b binding assay (SPR, Biacore T200); settings: 20° C., 1:1 binding model
Method in brief: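 NeutrAvidin capture chip, 20° C; 50 s injections at 50 μl/min, 90-180 s dissociation; 0.3 M NaCl regeneration. Asterisked column: 50 mM NaCl buffer and 30 nM Src kinase in place of 100 mM NaCl and 60 nM Src kinase. 1:1 fit.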

Chain of Cbl-b (residues 36-427) (Q13191 36-427): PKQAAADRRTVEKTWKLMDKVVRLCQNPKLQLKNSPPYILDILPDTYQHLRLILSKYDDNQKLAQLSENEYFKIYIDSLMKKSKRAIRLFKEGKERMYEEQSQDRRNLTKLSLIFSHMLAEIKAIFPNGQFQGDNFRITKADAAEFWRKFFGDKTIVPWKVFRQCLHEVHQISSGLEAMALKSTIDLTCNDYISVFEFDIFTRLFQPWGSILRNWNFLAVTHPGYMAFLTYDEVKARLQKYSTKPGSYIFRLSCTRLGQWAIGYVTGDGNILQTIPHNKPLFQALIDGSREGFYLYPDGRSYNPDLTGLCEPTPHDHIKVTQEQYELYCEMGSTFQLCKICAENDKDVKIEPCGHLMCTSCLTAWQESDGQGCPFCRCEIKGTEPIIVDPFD
Chain of Cbl-b (Q13191 36-427): as above

Structure (SMILES)	fold induction at 0.3 µM (T-cell [1])	fold induction at 1 µM (T-cell [1])	fold induction at 4 µM (T-cell [1])	fold induction at 1 µM (T-cell [2])	fold induction at 8 µM (T-cell [2])	IC50 (Cbl-b) [nM]	Kd (Cbl-b (residues 36-427)) [nM]
C[C@H](Cc1nncn1C)c1cc(N[C@@H]2CCOC2)nc(N2Cc3c(cccc3C(F)(F)F)C2=O)c1 (stereo in doubt) [Compound 362, 2-(4-((R)-1-(4-methyl-4H-1,2,4-triazol-3-yl)propan-2-yl)-6-((S)-THF-3-ylamino)pyridin-2-yl)-4-(trifluoromethyl)isoindolin-1-one]	1.01 to 2.5	1.01 to 2.5	1.01 to 2.5	0.601 to 0.8	0.801 to 1	100 to 300	100 to 300
C[C@H](Sc1nncn1C)c1ccnc(N2Cc3c(cccc3C(F)(F)F)C2=O)c1 [Compound 172a, (S)-(4-(1-((4-methyl-4H-1,2,4-triazol-3-yl)thio)ethyl)pyridin-2-yl)-4-(trifluoromethyl)isoindolin-1-one]	2.51 to 5	2.51 to 5	2.51 to 5	< 0.6	< 0.6	301 to 1000	1000 to 3000
Cn1cnnc1[C@@H]1C[C@@H]1c1cccc(NC(=O)c2nc3c(C(F)(F)F)cccc3[nH]2)c1 [Compound 332, N-(3-((1S,2R)-2-(4-methyl-4H-1,2,4-triazol-3-yl)cyclopropyl)phenyl)-4-(trifluoromethyl)-1H-benzo[d]imidazole-2-carboxamide]	1.01 to 2.5	1.01 to 2.5	2.51 to 5	0.601 to 0.8	0.801 to 1	100 to 300	301 to 1000
Cn1cnnc1[C@@H]1CC[C@@H]1c1cccc(N2Cc3c(cccc3C(F)(F)F)C2=O)c1 [Compound 283b, 2-(3-((1S,2R)-2-(4-methyl-4H-1,2,4-triazol-3-yl)cyclobutyl)phenyl)-4-(trifluoromethyl)isoindolin-1-one]	5 to 7.5	> 7.5	> 7.5	0.601 to 0.8	0.801 to 1	301 to 1000	301 to 1000
C[C@H](Cc1nncn1C)c1ccnc(N2Cc3c(cccc3C(F)(F)F)C2=O)c1 [Compound 304b, (R)-2-(4-(1-(4-methyl-4H-1,2,4-triazol-3-yl)propan-2-yl)pyridin-2-yl)-4-(trifluoromethyl)isoindolin-1-one]	< 1	< 1	1.01 to 2.5	< 0.6	< 0.6	301 to 1000	1000 to 3000
C[C@H](Cc1nncn1C1CC1)c1cccc(N2Cc3c(cccc3C(F)(F)F)C2=O)c1 [Compound 265, (R)-2-(3-(1-(4-cyclopropyl-4H-1,2,4-triazol-3-yl)propan-2-yl)phenyl)-4-(trifluoromethyl)isoindolin-1-one]	< 1	1.01 to 2.5	1.01 to 2.5	0.601 to 0.8	0.801 to 1	301 to 1000	3000 to 10000
COc1cc(C(=O)Nc2cccc([C@H](C)Sc3nncn3C)c2)nc(C(F)(F)F)c1 [Compound 71, (S)-4-methoxy-N-(3-(1-((4-methyl-4H-1,2,4-triazol-3-yl)thio)ethyl)phenyl)-6-(trifluoromethyl)picolinamide]	2.51 to 5	2.51 to 5	5 to 7.5	0.801 to 1	0.801 to 1	100 to 300	100 to 300
Cc1[nH]cnc1CC(C)c1cccc(N2Cc3c(cccc3C(F)(F)F)C2=O)c1 (centres unmarked) [Compound 272, 2-[3-[1-(5-methyl-1H-imidazol-4-yl)propan-2-yl]phenyl]-4-(trifluoromethyl)isoindolin-1-one]	< 1	< 1	< 1	< 0.6	< 0.6	301 to 1000	3000 to 10000
